Experimental data: patent publication US20120122727A1, “IN VITRO METHOD FOR PREDICTING WHETHER A COMPOUND IS GENOTOXIC IN VIVO” (priority 2009, published 2012)

How the values were obtained:
[1] = test system: primary mouse hepatocytes; experiment: Gene expression (Affymetrix Mouse Genome 430 2.0) in primary mouse hepatocytes, true vs false GTX, 24 h and 48 h
[2] = test system: primary mouse hepatocytes
[3] = test system: primary mouse hepatocytes; experiment: Gene expression in primary mouse hepatocytes, GTX vs non-GTX (four-gene classifier, 24 h)

For Mitomycin C [MitC], the “Gene expression AA561726 average” value [1] was −4.372, the “Gene expression AF000969 average” value [1] was −3.3606 and the “Gene expression AF022072 average” value [1] was −3.37. For the same substance, the “Gene expression AF033112 average” value [1] was 2.219, the “Gene expression AF055573 average” value [1] was −2.916 and the “Gene expression AF069954 average” value [1] was 2.26. The “Gene expression AF297615 average” value [1] was 1.841, the “Gene expression AF335325 average” value [1] was 1.755 and the “Gene expression AI594683 average” value [1] was 4.611. The “Gene expression AI747296 average” value [1] was −2.056, the “Gene expression AK005731 average” value [1] was 6.089 and the “Gene expression AK007854 average” value [1] was 1.5. For the same substance, the “Gene expression AK010447 average” value [1] was −1.6388, the “Gene expression AK010738 average” value [1] was 1.98 and the “Gene expression AK014608 average” value [1] was 2.8746. The “Gene expression AK017734 average” value [1] was 1.835, the “Gene expression AK018383 average” value [1] was 0.994 and the “Gene expression AK019979 average” value [1] was −3.757. For the same substance, the “Gene expression AV095209 average” value [1] was −2.78, the “Gene expression AV141095 average” value [1] was −2.411 and the “Gene expression AV173869 average” value [1] was −2.2889. The “Gene expression AV216768 average” value [1] was −4.149, the “Gene expression AV219418 average” value [1] was 4.168 and the “Gene expression AV221299 average” value [1] was −3.71. For the same substance, the “Gene expression AV246296 average” value [1] was 1.4788, the “Gene expression AV251625 average” value [1] was 2.477 and the “Gene expression AV254764 average” value [1] was 1.411. The “Gene expression AV327248 average” value [1] was 4.918, the “Gene expression BB009155 average” value [1] was 2.9201 and the “Gene expression BB027848 average” value [1] was 1.879. The “Gene expression BB043558 average” value [1] was 2.332, the “Gene expression BB046347 average” value [1] was 1.35 and the “Gene expression BB140436 average” value [1] was −1.601. For the same substance, the “Gene expression BB204486 average” value [1] was −4.144, the “Gene expression BB223872 average” value [1] was 2.201 and the “Gene expression BB246912 average” value [1] was −1.866. The “Gene expression BB275142 average” value [1] was 2.282, the “Gene expression BB458460 average” value [1] was −2.7207 and the “Gene expression BB463610 average” value [1] was 2.728. For the same substance, the “Gene expression BB730977 average” value [1] was −2.36, the “Gene expression BB743970 average” value [1] was 3.5588 and the “Gene expression BB770528 average” value [1] was 2.0332. The “Gene expression BB781615 average” value [1] was 0.8952, the “Gene expression BC003284 average” value [1] was 2.093 and the “Gene expression BC004827 average” value [1] was −3.639. The “Gene expression BC005552 average” value [1] was −1.342, the “Gene expression BC006713 average” value [1] was 1.2958 and the “Gene expression BC010318 average” value [1] was −1.729. For the same substance, the “Gene expression BC012247 average” value [1] was 2.2674, the “Gene expression BC012955 average” value [1] was −2.241 and the “Gene expression BC013893 average” value [1] was 1.864. For the same substance, the “Gene expression BC017615 average” value [1] was −3.947, the “Gene expression BC019379 average” value [1] was −2.7493 and the “Gene expression BC019882 average” value [1] was 2.442. For the same substance, the “Gene expression BC021352 average” value [1] was 3.121, the “Gene expression BC022148 average” value [1] was 2.668 and the “Gene expression BC025169 average” value [1] was −3.296. For the same substance, the “Gene expression BC026131 average” value [1] was −0.9986, the “Gene expression BC027026 average” value [1] was 2.873 and the “Gene expression BC027121 average” value [1] was 2.742. For the same substance, the “Gene expression BC027185 average” value [1] was 2.115, the “Gene expression BE956581 average” value [1] was 3.68 and the “Gene expression BF719766 average” value [1] was 2.112. For the same substance, the “Gene expression BG065754 average” value [1] was 1.3079, the “Gene expression BG066491 average” value [1] was −1.929 and the “Gene expression BG076151 average” value [1] was 2.5119. For the same substance, the “Gene expression BG076333 average” value [1] was −1.87, the “Gene expression BG797099 average” value [1] was 2.6244 and the “Gene expression BG967046 average” value [1] was 1.305. The “Gene expression BI651416 average” value [1] was 2.2069, the “Gene expression BI966443 average” value [1] was 4.094 and the “Gene expression BM198879 average” value [1] was 1.928. The “Gene expression BM200015 average” value [1] was 1.702, the “Gene expression BM230508 average” value [1] was 2.571 and the “Gene expression BM936480 average” value [1] was 2.006. For the same substance, the “Gene expression BQ174991 average” value [1] was −2.777, the “Gene expression L21027 average” value [1] was −4.612 and the “Gene expression NM_007556 average” value [1] was −4.012. The “Gene expression NM_007980 average” value [1] was 2.9391, the “Gene expression NM_007987 average” value [1] was 2.2406 and the “Gene expression NM_008522 average” value [1] was 5.9249. The “Gene expression NM_008935 average” value [1] was −3.601, the “Gene expression NM_009897 average” value [1] was 4.658 and the “Gene expression NM_011075 average” value [1] was 3.096. The “Gene expression NM_011176 average” value [1] was 1.856, the “Gene expression NM_011316 average” value [1] was 2.256 and the “Gene expression NM_012006 average” value [1] was 3.166. The “Gene expression NM_013642 average” value [1] was −0.7845, the “Gene expression NM_013738 average” value [1] was 2.749 and the “Gene expression NM_013929 average” value [1] was 2.481. For the same substance, the “Gene expression NM_018881 average” value [1] was 2.279, the “Gene expression NM_019738 average” value [1] was −2.772 and the “Gene expression NM_030697 average” value [1] was 3.958. The “Gene expression NM_053122 average” value [1] was −4.049, the “Gene expression NM_134147 average” value [1] was −2.8471 and the “Gene expression NM_134188 average” value [1] was 0.4786. The “Gene expression X62701 average” value [1] was −1.3159, the “Gene expression data AF000969 (Cadps2)” value [1] was −2.406 and the “Gene expression data AF022072 (Grb10)” value [1] was −3.6802. The “Gene expression data AF065917 (Lif)” value [1] was 1.033, the “Gene expression data AF297615 (Ggta1)” value [1] was 2.358 and the “Gene expression data AI594683 (Dmn)” value [1] was 3.671. For the same substance, the “Gene expression data AI596632 (Ptprg /// LOC632664)” value [1] was −4.795, the “Gene expression data AI987929 (Ndrg1)” value [1] was −3.324 and the “Gene expression data AK004419 (Fbxl17)” value [1] was −4.0931. The “Gene expression data AK005731 (1700007K13Rik)” value [1] was 5.7645, the “Gene expression data AK007766 (1810044A24Rik)” value [1] was −2.227 and the “Gene expression data AK007854 (1810053B23Rik)” value [1] was 2.898. For the same substance, the “Gene expression data AK009736 (Gpr137b /// LOC664862 /// LOC673335)” value [1] was −1.056, the “Gene expression data AK010447 (Smyd3)” value [1] was −1.439 and the “Gene expression data AK014608 (4632434l11Rik)” value [1] was 2.3711. For the same substance, the “Gene expression data AK019979 (2610528E23Rik)” value [1] was −3.317, the “Gene expression data AV095209 (Mthfd1l)” value [1] was −2.454 and the “Gene expression data AV141095 (1110033M05Rik)” value [1] was −2.287. The “Gene expression data AV173571 (1700106N22Rik)” value [1] was −2.287, the “Gene expression data AV219418 (Ldhb)” value [1] was 2.873 and the “Gene expression data AV223474 (Zdhhc14)” value [1] was −2.283. The “Gene expression data AV298304 (Homez)” value [1] was 1.9706, the “Gene expression data AV327248 (Zfp365 /// LOC674611)” value [1] was 4.258 and the “Gene expression data AV377066 (9130221J18Rik)” value [1] was 2.462. For the same substance, the “Gene expression data AW240761 (Tbc1d5)” value [1] was −2.643, the “Gene expression data AW543460 (Pard3)” value [1] was −3.164 and the “Gene expression data AW543723” value [1] was 2.3145. For the same substance, the “Gene expression data AW986246 (Maoa)” value [1] was −0.2119, the “Gene expression data BB027848 (4732466D17Rik)” value [1] was 2.18 and the “Gene expression data BB043558 (9230114K14Rik)” value [1] was 2.308. For the same substance, the “Gene expression data BB275142 (AW456874)” value [1] was 1.944, the “Gene expression data BB308836 (Ppm1l)” value [1] was −1.64 and the “Gene expression data BB318221 (Zdhhc14)” value [1] was −2.706. For the same substance, the “Gene expression data BB463610 (4632434l11Rik)” value [1] was 2.535, the “Gene expression data BB526605 (Mipol1)” value [1] was −2.035 and the “Gene expression data BB770528 (Rai2)” value [1] was 2.603. For the same substance, the “Gene expression data BB821363 (Scfd2)” value [1] was −2.485, the “Gene expression data BC004827 (Psat1)” value [1] was −2.4733 and the “Gene expression data BC008626 (Icam1)” value [1] was 2.3005. The “Gene expression data BC010462 (BC010462)” value [1] was 1.163, the “Gene expression data BC012247 (Dcxr)” value [1] was 2.094 and the “Gene expression data BC012260 (Psmf1)” value [1] was 2.237. The “Gene expression data BC015270 (Hist2h3c2)” value [1] was 0.6339, the “Gene expression data BC016073 (Cdkal1)” value [1] was −1.963 and the “Gene expression data BC016265 (Ube2e2)” value [1] was −2.202. For the same substance, the “Gene expression data BC019882 (Acaa1b)” value [1] was 3.446, the “Gene expression data BC025501 (Aaas)” value [1] was 2.023 and the “Gene expression data BC025837 (Sbk1)” value [1] was 1.652. For the same substance, the “Gene expression data BC025915 (Cova1)” value [1] was −1.619, the “Gene expression data BC026422 (Tgm1)” value [1] was 2.651 and the “Gene expression data BF719766 (Thyn1)” value [1] was 2.045. For the same substance, the “Gene expression data BG065754 (Ccng1)” value [1] was 1.179, the “Gene expression data BG066903 (Kif16b)” value [1] was −1.047 and the “Gene expression data BG069873 (Gnb1l)” value [1] was 2.175. The “Gene expression data BG070887 (Gtdc1)” value [1] was −2.356, the “Gene expression data BG076151 (Ppm1d)” value [1] was 2.238 and the “Gene expression data BG261907 (Large)” value [1] was −3.876. For the same substance, the “Gene expression data BI651416 (Cdc42bpg)” value [1] was 2.482, the “Gene expression data BI660702 (Ell3)” value [1] was 3.742 and the “Gene expression data BM198879 (Ercc5)” value [1] was 2.012. For the same substance, the “Gene expression data BM230508 (A030007D23Rik)” value [1] was 2.556, the “Gene expression data NM_007987 (Fas)” value [1] was 2.6645 and the “Gene expression data NM_008522 (Ltf)” value [1] was 3.9908. The “Gene expression data NM_008576 (Abcc1)” value [1] was −1.312, the “Gene expression data NM_011176 (St14)” value [1] was 2.078 and the “Gene expression data NM_011316 (Saa4)” value [1] was 2.611. For the same substance, the “Gene expression data NM_012006 (Acot1)” value [1] was 3.959, the “Gene expression data NM_013866 (Zfp385)” value [1] was 2.3 and the “Gene expression data NM_018770 (Igsf4a)” value [1] was −2.054. For the same substance, the “Gene expression data NM_021451 (Pmaip1)” value [1] was 2.681, the “Gene expression data NM_025770 (Atg10)” value [1] was −1.329 and the “Gene expression data NM_028803 (Gbe1)” value [1] was −1.8898. The “Gene expression data NM_030697 (Ankrd47)” value [1] was 3.874, the “Gene expression data NM_053168 (Trim11)” value [1] was 1.4821 and the “Gene expression data NM_134188 (Acot2)” value [1] was −0.06593. The “Gene expression data Y15910 (Diap2)” value [1] was −2.813, the “Gene expression data AF204959 (Cyp3a25 /// LOC622249)” value [2] was 0.8169 and the “score 1700007K13RIK” value [3] was 1. The “score DDIT4L” value [3] was 1, the “score GAS2L3” value [3] was 1 and the “score SPC25” value [3] was 1.
